Laboratory results from patent US12365684B2, “Short-acting benzodiazepine salts and their polymorphic forms” (priority 2006, dated 2025).
Values joined by “and” are separate entries in the source; they are usually repeats but may differ in a detail not shown here. Equal values may be shown once. Read-outs that look alike come from different tables or passages of the source.

What was measured:
[1] = Polymorphism maturation experiment (solvent slurries), HPLC purity post 1 week; format: physicochemical; details: heat/cool cycle ambient to 60° C., starting hplc purity 97.7%
Method: The solid was slurried in various solvents (see Table 11) for one week on a heat/cool cycle from ambient to 60° C. After one week the slurries were evaporated and the solids analysed by XRPD and HPLC.
• Method: Gradient, Reverse Phase • Method Duration/min: 34 • Column: Phenomenex Gemini C18 5 μm (2.0×50 mm) (Guard cartridge Phenomenex Gemini C18 guard cartridge 2×4 mm) • Column Temperature/° C.: 40 • Injection/μl: 5 • Flow Rate ml/min: 0.8 • Detection: UV • Wavelength/nm: 255 (bandwidth of 90 nm), 240 (bandwidth of 80 nm), 254 (bandwidth of 8 nm) • Phase A: 2 mmol NH4HCO3 (adjusted to pH10 with NH3 solution) Phase B: acetonitrile Timetable: […]

[2] = Thermodynamic aqueous solubility; format: physicochemical; details: water, 25° C., 24 hrs
Method: This was measured by suspending sufficient compound in 0.25 ml of solvent (water) to give a maximum final concentration of 10 mg/ml of the parent free form of the compound. The suspension was equilibrated at 25° C. for 24 hrs followed by a pH check and filtration through a glass fibre C 96 well plate. The filtrate is then diluted down 101x. Quantitation was by HPLC with reference to a standard dissolved in DMSO at approx 0.1 mg/ml. Different volumes of the standard, diluted and undiluted tests were injected. The solubility was calculated by integration of the peak area found at the same retention time as the peak maximum in the standard injection. If there is sufficient solid in the filter plate the XRPD is normally checked for phase changes, hydrate formation, amorphization, crystallization etc.

[3] = Gravimetric Vapour Sorption (GVS); format: physicochemical; details: 25° C., 0-90% RH range
Method: All samples were run on a Hiden IGASorp moisture sorption analyser running CFRSorp software. Sample sizes were typically 10 mg. A moisture adsorption desorption isotherm was performed as outlined below (2 scans giving 1 complete cycle). All samples were loaded/unloaded at typical room humidity and temperature (40% RH, 25° C.). All samples were analysed by XRPD post GVS analysis. The standard isotherm was performed at 25° C. at 10% RH intervals over a 0-90% RH range unless otherwise stated.

[4] = test system: mice; assay: Anaesthetic and sedative effects: loss of the righting reflex (LRR) after i.v. administration; format: in vivo; details: for NUMBER OF MICE WITH LRR: eight mice per group; for LRR DURATION, mean: maximum = 90 minutes after injection
Method: The anaesthetic and sedative effects of the besylate salt Form 1 of the present invention was evaluated. The besylate (benzenesulfonic acid) salt was dissolved in physiological saline for administration of the test composition to the animal. The test composition was administered to mice, placed in individual Plexiglas cages (20×10×10 cm). Mice were injected with either vehicle or test substance by the intravenous route. The latency to sleep and the duration of anaesthesia (maximum: 90 minutes after test-substance administration) were recorded. Anaesthesia is indicated by loss of the righting reflex (LRR). The righting reflex test was performed as soon as the animals appear sedated, approximately every 20-30 seconds. Once the righting reflex is absent, duration of loss of righting reflex was measured by testing for the return of the righting reflex approximately every 20-30 seconds thereafter. Eight mice were studied per group and the test was performed blind.

[5] = Observed solubility of compound of formula (I) besylate in solvents; format: physicochemical; details: approximate
Description: The compound also has an excess of Hydrogen bond acceptors and therefore will be suitably partnered by Hydrogen bond donating solvents. It is thus expected that the compound will prefer solubilisation in a range of polar organic solvents such as the alcohols, particularly those which provide a partially lipophillic, Hydrogen bond donating environment. This has been borne out by experimental evidence (details of solvents used are given in Example 8):
Values quoted are approximate, but experimentally confirmed.

[6] = pKa determination (potentiometric titration, Sirius GlpKa); format: physicochemical; details: MeOH:H2O mixtures, MeOH:H2O mixtures at 25° C., extrapolated to 0% co-solvent
Method: pka determination was performed on a Sirius GlpKa instrument with D-PAS attachment. Measurements were made by potentiometric titration in MeOH:H2O mixtures at 25° C. The titration media was ionic strength adjusted with 0.15M KCl. The values found in the MeOH:H2O mixtures were extrapolated to 0% co-solvent via a Yasuda-Shedlovsky extrapolation.

[7] = Solid-state stability study of compound of formula (I) (appearance, HPLC content); format: physicochemical
Method: Method/Technique. 2 mg samples of compound of formula (I), accurately weighed, were placed in 4-mL clear glass screw-cap vials. Samples were tested at initial and after 34 days stored at 5° C./Ambient Relative Humidity (AMRH) Closed, 30° C./60% RH Closed, 40° C./75% RH Open and 60° C./AMRH Closed.

COC(=O)CC[C@@H]1N=C(c2ccccn2)c2cc(Br)ccc2-n2c(C)cnc21.O=S(=O)(O)c1ccccc1 [besylate Form 1]
HPLC purity post 1 week ([1]; slurried in 1,4-Dioxane): 97.2 % area
HPLC purity post 1 week ([1]; slurried in 2.5% aq 1,4-Dioxane): 86 % area
HPLC purity post 1 week ([1]; slurried in 2.5% aq DCM): 97.4 % area
HPLC purity post 1 week ([1]; slurried in 2.5% aq IPA): 76.1 % area
HPLC purity post 1 week ([1]; slurried in 2.5% aq MEK): 93.9 % area
HPLC purity post 1 week ([1]; slurried in 2.5% aq MIBK): 97.3 % area
HPLC purity post 1 week ([1]; slurried in 2.5% aq MeCN): 93.3 % area
HPLC purity post 1 week ([1]; slurried in 2.5% aq THF): 93.3 % area
HPLC purity post 1 week ([1]; slurried in 2.5% aq acetone): 96.8 % area
HPLC purity post 1 week ([1]; slurried in DCM): 97.4 % area
HPLC purity post 1 week ([1]; slurried in IPA): 97.1 % area
HPLC purity post 1 week ([1]; slurried in MEK): 97.2 % area
HPLC purity post 1 week ([1]; slurried in MIBK): 97.7 % area
HPLC purity post 1 week ([1]; slurried in MeCN): 94.3 % area
HPLC purity post 1 week ([1]; slurried in MtBE): 97.7 % area
HPLC purity post 1 week ([1]; slurried in THF): 97.6 % area
HPLC purity post 1 week ([1]; slurried in acetone): 97.5 % area
HPLC purity post 1 week ([1]; slurried in iPrOAc): 97.5 % area
solubility [2]: 8.3 mg/mL
GVS uptake [3]: 2.0%
NUMBER OF MICE WITH LRR ([4]; 20.4 mg/kg i.v.): 2
LRR DURATION, mean ([4]; 20.4 mg/kg i.v.): 1.7 min
LATENCY TO LRR, mean ± s.e.m. ([4]; 27.2 mg/kg i.v.): 3.0 ± 0.2 min
NUMBER OF MICE WITH LRR ([4]; 27.2 mg/kg i.v.): 5+
LRR DURATION, mean ([4]; 27.2 mg/kg i.v.): 4.9 min
LATENCY TO LRR, mean ± s.e.m. ([4]; 34 mg/kg i.v.): 1.8 ± 0.2 min
NUMBER OF MICE WITH LRR ([4]; 34 mg/kg i.v.): 6++
LRR DURATION, mean ([4]; 34 mg/kg i.v.): 6.0 min
LATENCY TO LRR, mean ± s.e.m. ([4]; 40.8 mg/kg i.v.): 1.6 ± 0.5 min
NUMBER OF MICE WITH LRR ([4]; 40.8 mg/kg i.v.): 6++
LRR DURATION, mean ([4]; 40.8 mg/kg i.v.): 7.3 min

COC(=O)CC[C@@H]1N=C(c2ccccn2)c2cc(Br)ccc2-n2c(C)cnc21.O=S(=O)(O)c1ccccc1 [compound of formula (I) besylate]
solubility ([5]; Water): 2 mg/mL
solubility ([5]; organic solvent or mixture, 1,2-ethanediol): 60 mg/mL
solubility ([5]; organic solvent or mixture, 1,4-dioxan): 1 mg/mL
solubility ([5]; organic solvent or mixture, 2,2,2-trifluoroethanol): 1000 mg/mL
solubility ([5]; organic solvent or mixture, 2-ethoxyethanol): 20 mg/mL
solubility ([5]; organic solvent or mixture, 2-methoxyethanol): 167 mg/mL
solubility ([5]; organic solvent or mixture, Acetone): 2 mg/mL
solubility ([5]; organic solvent or mixture, Acetonitrile): > 20 mg/mL
solubility ([5]; organic solvent or mixture, Chloroform): < 0.4 mg/mL
solubility ([5]; organic solvent or mixture, Dichloromethane): < 0.3 mg/mL
solubility ([5]; organic solvent or mixture, Dimethyl sulfoxide): 500 mg/mL
solubility ([5]; organic solvent or mixture, Dimethylacetamide): 200 mg/mL
solubility ([5]; organic solvent or mixture, Dimethylformamide): 300 mg/mL
solubility ([5]; organic solvent or mixture, Ethanol): 100 mg/mL
solubility ([5]; organic solvent or mixture, Ethyl acetate): 0.2 mg/mL
solubility ([5]; organic solvent or mixture, Formamide): 350 mg/mL
solubility ([5]; organic solvent or mixture, Hexafluoropropan-2-ol): > 700 mg/mL
solubility ([5]; organic solvent or mixture, Methanol): 400 mg/mL
solubility ([5]; organic solvent or mixture, Methylbenzoate): 2 mg/mL
solubility ([5]; organic solvent or mixture, Propan-1-ol): 15 mg/mL
solubility ([5]; organic solvent or mixture, Propan-2-ol): 4.8 mg/mL
solubility ([5]; organic solvent or mixture, Tetrahydrofuran): 2.5 mg/mL

COC(=O)CC[C@@H]1N=C(c2ccccn2)c2cc(Br)ccc2-n2c(C)cnc21 [compound of formula (I), Methyl 3-[(4S)-8-bromo-1-methyl-6-(2-pyridinyl)-4H-imidazol [1,2-a][1,4]benzodiazepin-4-yl]propanoate]
pKa ([6]; read-out: pKa of the basic centre of the imidazole ring): ~5
pKa ([6]; read-out: pKa of the basic centre of the pyridine ring): ~2
% Relative to Avg. Initial % area ([7]; 5 C./AMRH Closed, 34 days): 100.52%
Appearance ([7]; 5 C./AMRH Closed, 34 days): Cream to light yellow powder
Compound of Formula (I) Content % area ([7]; 5 C./AMRH Closed, 34 days): 95.30 % area
Compound of Formula (I) Content % w/w ([7]; 5 C./AMRH Closed, 34 days): 102.6 % w/w
% Relative to Avg. Initial % area ([7]; 30 C./60% RH Closed, 34 days): 99.36%
Appearance ([7]; 30 C./60% RH Closed, 34 days): Cream to light yellow powder
Compound of Formula (I) Content % area ([7]; 30 C./60% RH Closed, 34 days): 94.20 % area
Compound of Formula (I) Content % w/w ([7]; 30 C./60% RH Closed, 34 days): 94.7 % w/w
drop in content relative to the initial % area ([7]; 30° C./60% RH Closed, 34 days): approximately 0.6%
% Relative to Avg. Initial % area ([7]; 40 C./75% RH Open, 34 days): 98.57% and 98.50%
Compound of Formula (I) Content % area ([7]; 40 C./75% RH Open, 34 days): 93.45 % area and 93.39 % area
Compound of Formula (I) Content % w/w ([7]; 40 C./75% RH Open, 34 days): 105.4 % w/w and 100.3 % w/w
% Relative to Avg. Initial % area ([7]; 60 C./AMRH Closed, 34 days): 92.57%
Compound of Formula (I) Content % area ([7]; 60 C./AMRH Closed, 34 days): 87.77 % area
Compound of Formula (I) Content % w/w ([7]; 60 C./AMRH Closed, 34 days): 93.4 % w/w and 91.1 % w/w
decrease of average % w/w content from the initial value ([7]; 34 days at 60° C./AMRH Closed): 10 % w/w
Appearance ([7]; RT, initial): Cream to light yellow powder
Compound of Formula (I) Content % area ([7]; RT, initial): 95.14 % area and 94.47 % area
Compound of Formula (I) Content % w/w ([7]; RT, initial): 100.5 % w/w and 104.1 % w/w
Avg. Initial % area ([7]; RT, initial, average of two samples): Avg = 94.81 % area
time stable with respect to appearance and content ([7]; stored at 5° C./AMRH Closed): at least 34 days
